Assay results published in patent US7052850B2, “Isolated human EDG-4 receptor” (priority 1997, dated 2006).
Entries after “also recorded” stand apart in the source; their conditions may differ.

Legend:
[1] = system: pcDNA3-transfected 293-EBNA cells; test: NF-κB luciferase reporter in 293-EBNA cells, empty vector pcDNA3; format: cell-based; details: empty vector control; S1P, SPC 1-10 μM, LPA 10 μM, 20% FBS
Description: • 1) 150 mm plates of 293-EBNA obtained from Invitrogen (Cat. R620-07) with a confluency of 18 80% were used for transfection. • 2) 6.6 μg NF-κB-tk-p4Luc reporter DNA and 6.6 μg of pC3-redg4 (expressing rat EDG-4), or pcDNA3 DNA was diluted in 500 μl OPTI-MEM (Gibco; Cat. 31985-062) • 3) 96.8 μl Lipofectamine (Gibco; Cat. 18324-020) was diluted in 500 μl of OPTI-MEM. • 4) The 2 solutions were mixed gently and the tube was incubated for 30 min at room temperature. • 5) The 293-EBNA plates were washed once with PBS and 13 ml OPTI-MEM was added to each plate, • 6) 6 ml OPTI-UMM was added to each transfection tube and this was added to a plate of 293EBNA cells. The plates were left for 4 hrs at 37° C. in a 5% CO2 incubator. • 7) After 4 his, the media was removed and replaced with frest 10% FBS media. Day 2: • 1) Transfected cells were washed, typsinized with 1× tryspin, resuspended in 10 ml media and counted. • 2) 0.02×10 ^6 cells were plated per well of a 96-well Blackview plate coated with polyD-lysine. No cells were plated in the outside wells of the 96-well plate. Two 96-well plates were seeded for each transfection. Day 3: • 1) Cells were washed with PBS and 140 μl serum-free media (SFM) added to each well. Plates were incubated in 37° C. incubator for 6 hrs. • 2) After 6 hrs, media was removed and cells treated with compounds diluted in 0.5% FBS media (140 μl added to each well). The Following Treatments Were Used: pcDNA3:
Day 4 Luciferase Assay • 1) Luclite kit (Packard; Cat. 6016911) was used for luciferase assay. All reagents were brought to room temperature before use. • 2) Supernatant was transferred to a new 96-well plate and stored at −20 C. for […] IL-8 measurement. • 3) 50 μl 0.5 M HEPES pH 7.8 buffer (1 mM MgCl21 mM CaCl2) was addeded to all wells of 96-well plate. […] A stop plate was placed on top of the blackview plate to keep it in the dark. • 6) Plates were incubated at room temperature for 30 min. • 7) After incubation, plates were counted in a 12 detector Packard Top Count on a program without dark delay. […]

human EDG-3 = human EDG-3 (Homo sapiens, UniProt Q99500); test: SRE luciferase reporter in 293-EBNA cells, human EDG-3; format: cell-based; details: Assay 3; pancreas clone pC3-E3HP2; 3 μM
Sequence of human EDG-3 (Q99500 whole entry): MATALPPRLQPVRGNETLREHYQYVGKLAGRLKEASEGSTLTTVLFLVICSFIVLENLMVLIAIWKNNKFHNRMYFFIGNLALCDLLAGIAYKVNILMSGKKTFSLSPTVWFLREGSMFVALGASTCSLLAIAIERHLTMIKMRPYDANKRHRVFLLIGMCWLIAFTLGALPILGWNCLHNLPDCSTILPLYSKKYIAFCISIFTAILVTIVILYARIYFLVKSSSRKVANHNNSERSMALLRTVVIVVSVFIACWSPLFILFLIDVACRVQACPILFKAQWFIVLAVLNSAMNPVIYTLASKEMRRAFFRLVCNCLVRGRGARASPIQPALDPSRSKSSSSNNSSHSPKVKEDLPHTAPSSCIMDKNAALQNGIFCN
Description: The protocol described in Example 11 for Assay 1 was allowed except for the following changes: • 1) 100 mm plates of 293-EBNA ith a confluency of ˜80% were used for transfection, • 2) SRE Cotransfection: 0.5 μg of 2XSREtk-p4Luc-zeo reporter DNA and 3.5 μg pcDNA3, EDG-1, EDG-3 pC3-hE3P2, different from the clone used in Assay 2 of Example 11) or the newly cloned human EDG-4 (pC3-hedg4#36); NF-κB Cotransfection: 2 μg 6XNFκBtk-p4LUc-zeo reporter DNA and 2.0 μg pcDNA3, EDG-1, EDG-3 (pC3-hE3HP2), or EDG-4 (pC3-hedg4#36). Expression plasmid and reporter plasmid DNA samples were combined and diluted in 750 μl of DMEM/F12 (serum free media) and 20 μl Plus Reagent (Lipofectamine Plus Kit, Life Technologies Cat. 109640-13), and incubated at room temperature for 15 min. • 3) 30 μl Lipofectamine Reagent (Lipofectamine Plus Kit) was diluted in 750 μl DMEM/F12. The diluted Lipofectamine was then combined with the DNA/Plus mixture and incubated at room temperature for 15 min. • 4) The 293-EBNA plates were washed once with PBS and 5 ml DMEM/F12 was added to each plate. • 5) DNA/Plus/Lipofectamine mixture was added to each plate of 293-EBNA cells. […]

Molecule: CCCCCCCCCCCCC/C=C/[C@@H](O)[C@@H](N)COP(=O)(O)O [S1P, sphingosine 1-phosphate]
- NF-κB reporter response in pcDNA3-transfected cells [1]: No increase in luciferase activity; also recorded: No response; also recorded: No such induction
- SRE reporter response (human EDG-3): 12 fold

Molecule: CCCCCCCCCCCCC/C=C/[C@@H](O)[C@@H](N)COP(=O)([O-])OCC[N+](C)(C)C [SPC, sphingosylphosphorylcholine]
- NF-κB reporter response in pcDNA3-transfected cells [1]: No response; also recorded: No such induction
- SRE reporter response (human EDG-3): 11 fold

Molecule: lysophosphatidic acid [LPA]
- NF-κB reporter response in pcDNA3-transfected cells [1]: no response
